The values below come from patent US20100010219A1, “METHOD FOR PRODUCING PYRROLIDINE COMPOUND” (JAPAN TOBACCO INC., priority 2006, published 2010).

Structures can show the parent of a compound that is named as a salt.

For the assay, the target named is T1, human HSD-1 (recombinant HSD-1) (Homo sapiens, UniProt P28845).
T1 construct: made in house
The assay is described as follows: HSD-1 activity inhibitory action in vitro (SPA, conversion of cortisone to cortisol). Conditions: recombinant human HSD-1 expressed using baculovirus system; 10 nM 3H cortisone, 500 μM NADPH; room temperature 90 to 120 min; read-out: hHSD1 (IC50 (nM)). The format is biochemical.

T1 sequence (P28845 whole entry): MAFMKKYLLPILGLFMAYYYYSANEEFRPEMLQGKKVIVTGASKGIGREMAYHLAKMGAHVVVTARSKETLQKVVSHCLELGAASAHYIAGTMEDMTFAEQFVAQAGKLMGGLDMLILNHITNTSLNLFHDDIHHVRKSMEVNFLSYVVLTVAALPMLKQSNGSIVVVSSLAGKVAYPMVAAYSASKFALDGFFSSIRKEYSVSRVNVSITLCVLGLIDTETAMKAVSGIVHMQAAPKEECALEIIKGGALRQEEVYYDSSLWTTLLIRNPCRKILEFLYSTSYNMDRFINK

Turning to `O=C(c1cnn(C2CN(c3ccc(Cl)cn3)C2)c1C1CC1)N1CCC(c2ccccc2C(F)(F)F)C1` (stereo not drawn) [Example 173], the IC50 (as a rule, the concentration that gives 50% inhibition) is < 30 nM. As to `O=C(NC1(CO)CCCC1)N1CCC(n2ncc(C(=O)N3CC[C@@H](c4ccccc4C(F)(F)F)C3)c2C2CC2)CC1` [Example 54, 1-{5-cyclopropyl-1-[1-(1-hydroxymethylcyclopentylcarbamoyl)piperidin-4-yl]-1H-pyrazole-4-carbonyl}-[(S)-3-(2-trifluoromethylphenyl)]pyrrolidine], the IC50 is < 30 nM. Regarding `C/C(=N\C#N)N1CCC(n2ncc(C(=O)N3CC[C@@H](c4ccccc4C(F)(F)F)C3)c2C2CC2)CC1` [Example 110, 1-{1-[1-(1-cyanoiminoethyl)piperidin-4-yl]-5-cyclopropyl-1H-pyrazole-4-carbonyl}-[(S)-3-(2-trifluoromethylphenyl)]pyrrolidine], the IC50 is < 30 nM. Then `NCCNC(=O)N1CCC(n2ncc(C(=O)N3CC[C@@H](c4ccccc4C(F)(F)F)C3)c2C2CC2)CC1` [Example 11, 1-{1-[1-(2-aminoethylcarbamoyl)piperidin-4-yl]-5-cyclopropyl-1H-pyrazole-4-carbonyl}-[(S)-3-(2-trifluoromethylphenyl)]pyrrolidine hydrochloride], with < 30 nM; and `O=C(O)c1ccc(N2CCC(n3ncc(C(=O)N4CCC(c5ccccc5C(F)(F)F)C4)c3C3CC3)CC2)c(F)c1` (stereo not drawn) [Example 183, Sodium 4-(4-{5-cyclopropyl-4-[3-(2-trifluoromethylphenyl)pyrrolidine-1-carbonyl]pyrazol-1-yl}piperidin-1-yl)-3-fluorobenzoate], with < 30 nM.

Turning to `O=C1CN(C(=O)N2CCC(n3ncc(C(=O)N4CC[C@@H](c5ccccc5C(F)(F)F)C4)c3C3CC3)CC2)CCN1` [Example 26, 1-{5-cyclopropyl-1-[1-(3-oxopiperazine-1-carbonyl)piperidin-4-yl]-1H-pyrazole-4-carbonyl}-[(S)-3-(2-trifluoromethylphenyl)]pyrrolidine], the IC50 is < 30 nM. As to `O=C(c1cnn(C2CCN(C(=O)N3CC(O)C3)CC2)c1C1CC1)N1CC[C@@H](c2ccccc2C(F)(F)F)C1` [Example 20, 1-{5-cyclopropyl-1-[1-(3-hydroxyazetidine-1-carbonyl)piperidin-4-yl]-1H-pyrazole-4-carbonyl}-[(S)-3-(2-trifluoromethylphenyl)]pyrrolidine], the IC50 is < 30 nM. In the case of `O=C(c1cnn(C2CCN(C(=O)N3CCC(O)C3)CC2)c1C1CC1)N1CC[C@@H](c2ccccc2C(F)(F)F)C1` (stereo partly drawn) [Example 16, 1-{5-cyclopropyl-1-[1-(3-hydroxypyrrolidine-1-carbonyl)piperidin-4-yl]-1H-pyrazole-4-carbonyl}-[(S)-3-(2-trifluoromethylphenyl)]pyrrolidine], the half-inhibitory concentration (IC50) was < 30 nM. Take `CC(C)NC(=O)N1CCC(n2ncc(C(=O)N3CC[C@@H](c4ccccc4C(F)(F)F)C3)c2C2CC2)CC1` [Example 125, 1-{5-cyclopropyl-1-[1-(1-isopropylcarbamoyl)piperidin-4-yl]-1H-pyrazole-4-carbonyl}-[(S)-3-(2-trifluoromethylphenyl)]pyrrolidine]: the IC50 was < 30 nM. As for `O=C(CC(F)(F)F)N1CCC(n2ncc(C(=O)N3CC[C@@H](c4ccccc4C(F)(F)F)C3)c2C2CC2)CC1` [Example 73, 1-{5-cyclopropyl-1-[1-(3,3,3-trifluoropropionyl)piperidin-4-yl]-1H-pyrazole-4-carbonyl}-[(S)-3-(2-trifluoromethylphenyl)]pyrrolidine], the IC50 is < 30 nM. `CC(C)[C@@H](CO)NC(=O)N1CCC(n2ncc(C(=O)N3CC[C@@H](c4ccccc4C(F)(F)F)C3)c2C2CC2)CC1` [Example 49, 1-(5-cyclopropyl-1-{1-[(S)-1-hydroxymethyl-2-methylpropylcarbamoyl]piperidin-4-yl}-1H-pyrazole-4-carbonyl)-[(S)-3-(2-trifluoromethylphenyl)]pyrrolidine]: the IC50 was < 30 nM. Then `O=C(Nc1ccccc1F)N1CCC(n2ncc(C(=O)N3CCC(c4cccnc4)C3)c2C2CCCCC2)CC1` (stereo not drawn) [Example 139, 1-{5-cyclohexyl-1-[1-(2-fluorophenylcarbamoyl)piperidin-4-yl]-1H-pyrazole-4-carbonyl}-3-(pyridin-3-yl)pyrrolidine], with < 30 nM. Regarding `NC(=O)c1ccc(N2CCC(n3ncc(C(=O)N4CCC(c5ccccc5C(F)(F)F)C4)c3C3CC3)CC2)cc1` (stereo not drawn) [Example 165, 1-{1-[1-(4-carbamoylphenyl)piperidin-4-yl]-5-cyclopropyl-1H-pyrazole-4-carbonyl}-3-(2-trifluoromethylphenyl)pyrrolidine], the IC50 is < 30 nM.

On to `CONC(=O)Nc1ccc(N2CCC(n3ncc(C(=O)N4CCC(c5ccccc5C(F)(F)F)C4)c3C3CC3)CC2)cc1` (stereo not drawn) [Example 170, 1-(5-cyclopropyl-1-{1-[4-(3-methoxyureido)phenyl]piperidin-4-yl}-1H-pyrazole-4-carbonyl)-3-(2-trifluoromethylphenyl)pyrrolidine], for which the IC50 is < 30 nM. Then `O=C(Nc1nccs1)N1CCC(n2ncc(C(=O)N3CCC(c4ccccc4C(F)(F)F)C3)c2C2CC2)CC1` (stereo not drawn) [Example 145, 1-{5-cyclopropyl-1-[1-(thiazol-2-ylcarbamoyl)piperidin-4-yl]-1H-pyrazole-4-carbonyl}-3-(2-trifluoromethylphenyl)pyrrolidine], with < 30 nM; and `O=C(c1cnn(C2CCN(C(=O)N3CC[C@@H](O)C3)CC2)c1C1CC1)N1CC[C@@H](c2ccccc2C(F)(F)F)C1` [Example 21, 1-(5-cyclopropyl-1-{1-[(R)-3-hydroxypyrrolidine-1-carbonyl]piperidin-4-yl}-1H-pyrazole-4-carbonyl)-[(S)-3-(2-trifluoromethylphenyl)]pyrrolidine], with < 30 nM; and `NC(=O)CCC(=O)N1CCC(n2ncc(C(=O)N3CC[C@@H](c4ccccc4C(F)(F)F)C3)c2C2CC2)CC1` [Example 93, 1-{1-[1-(3-carbamoylpropionyl)piperidin-4-yl]-5-cyclopropyl-1H-pyrazole-4-carbonyl}-[(S)-3-(2-trifluoromethylphenyl)]pyrrolidine], with < 30 nM. `CC(C)(N)C(=O)N1CCC(n2ncc(C(=O)N3CC[C@@H](c4ccccc4C(F)(F)F)C3)c2C2CC2)CC1` [Example 79, 1-{1-[1-(2-amino-2-methylpropionyl)piperidin-4-yl]-5-cyclopropyl-1H-pyrazole-4-carbonyl}-[(S)-3-(2-trifluoromethylphenyl)]pyrrolidine hydrochloride]: the IC50 is < 30 nM.

Turning to `CN(C)C1CCN(C(=O)N2CCC(n3ncc(C(=O)N4CC[C@@H](c5ccccc5C(F)(F)F)C4)c3C3CC3)CC2)C1` (stereo partly drawn) [Example 41, 1-{5-cyclopropyl-1-[1-(3-dimethylaminopyrrolidine-1-carbonyl)piperidin-4-yl]-1H-pyrazole-4-carbonyl}-[(S)-3-(2-trifluoromethylphenyl)]pyrrolidine hydrochloride], the IC50 was < 30 nM. Turning to `CC(C)(CN1CCC(n2ncc(C(=O)N3CC[C@@H](c4ccccc4C(F)(F)F)C3)c2C2CC2)CC1)C(N)=O` [Example 105, 1-{1-[1-(2-carbamoyl-2-methylpropyl)piperidin-4-yl]-5-cyclopropyl-1H-pyrazole-4-carbonyl}-[(S)-3-(2-trifluoromethylphenyl)]pyrrolidine hydrochloride], the IC50 was < 30 nM. The figure for `O=C(c1cnn(C2CCN(C(=O)N3CCC[C@@H](O)C3)CC2)c1C1CC1)N1CC[C@@H](c2ccccc2C(F)(F)F)C1` [Example 32, 1-(5-cyclopropyl-1-{1-[(R)-3-hydroxypiperidine-1-carbonyl]piperidin-4-yl}-1H-pyrazole-4-carbonyl)-[(S)-3-(2-trifluoromethylphenyl)]pyrrolidine] is < 30 nM; for `O=C(c1cnn(C2CCN(S(=O)(=O)CC(F)(F)F)CC2)c1C1CC1)N1CC[C@@H](c2ccccc2C(F)(F)F)C1` [Example 109, 1-{5-cyclopropyl-1-[1-(2,2,2-trifluoroethanesulfonyl)piperidin-4-yl]-1H-pyrazole-4-carbonyl}-[(S)-3-(2-trifluoromethylphenyl)]pyrrolidine] it is < 30 nM. Take `CC1(c2c(C(=O)N3CCC(CO)(c4ccc(F)cc4)C3)cnn2C2CCN(c3ncccn3)CC2)CC1` (single isomer, unassigned; (+)) [Example 128, (+)-3-(4-fluorophenyl)-3-hydroxymethyl-1-{5-(1-methylcyclopropyl)-1-[1-(pyrimidin-2-yl)piperidin-4-yl]-1H-pyrazole-4-carbonyl}pyrrolidine hydrochloride]: the IC50 is < 30 nM. As for `O=C(c1cnn(C2CCN(C(=O)N3CCC[C@H]3CO)CC2)c1C1CC1)N1CC[C@@H](c2ccccc2C(F)(F)F)C1` [Example 27, 1-(5-cyclopropyl-1-{1-[(S)-2-hydroxymethylpyrrolidine-1-carbonyl]piperidin-4-yl}-1H-pyrazole-4-carbonyl)-[(S)-3-(2-trifluoromethylphenyl)]pyrrolidine], the IC50 is < 30 nM. As to `COCC1(c2ccccc2)CCN(C(=O)c2cnn(C3CCN(c4ccc(Cl)cn4)CC3)c2C2(C)CC2)C1` (stereo not drawn) [Example 174, 1-{1-[1-(5-chloropyridin-2-yl)piperidin-4-yl]-5-(1-methylcyclopropyl)-1H-pyrazole-4-carbonyl}-3-methoxymethyl-3-phenylpyrrolidine], the IC50 was < 30 nM. `CC(C)[C@H](N)C(=O)N1CCC(n2ncc(C(=O)N3CC[C@@H](c4ccccc4C(F)(F)F)C3)c2C2CC2)CC1` [Example 84, 1-(1-{1-[(S)-2-amino-3-methylbutyryl]piperidin-4-yl}-5-cyclopropyl-1H-pyrazole-4-carbonyl)-[(S)-3-(2-trifluoromethylphenyl)]pyrrolidine hydrochloride]: the IC50 was < 30 nM.

As for `O=C(NCC(=O)N1CCC(n2ncc(C(=O)N3CC[C@@H](c4ccccc4C(F)(F)F)C3)c2C2CC2)CC1)C1CC1` [Example 88, 1-{1-[1-(2-cyclopropanecarbonylaminoacetyl)piperidin-4-yl]-5-cyclopropyl-1H-pyrazole-4-carbonyl}-[(S)-3-(2-trifluoromethylphenyl)]pyrrolidine], the IC50 was < 30 nM.
